{
  "source": "the supplement of paper PMC11208160",
  "data": [
    {"test": "recombinant UMI read abundance after kanamycin selection (control-corrected) (log10(CPM+1)); higher = more efficient recombination; extreme values may be limits of the assay; sequences stand for … in AGTGCAGAGAAAATCGGCCAGTTTTCTCTGCCTGCAGTCCGCATGCCGTGGGACCCCTTGGGTTCTAACCTGTTGCCTAGATTTATGCAGCGGACTGCCTTTCTCCCAAAGTGATAAACCGG…AGGTTGGTTTCACT; site = the 11-nt donor", "outline": "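Values are reported as log10(CPM+1), obtained by converting sequencing counts to CPM, averaging replicates and scaling by control-derived factors. The counts came from recombinant UMIs amplified by PCR across the donor–target junction. These UMIs came from a pooled Escherichia coli screen of donor and donor-binding-loop pairs for the IS621 bridge recombinase, plated with IPTG (0.07 mM) plus kanamycin or left unselected, in two replicates each.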", "values": [
      {"sequence": "TAGCTAGCATGGACCGGTTTTCCCGGTAATCCGTATTTGAA (site TAGCTAGCTTC)", "recombinant UMI read abundance (log10)": 0.504},
      {"sequence": "TAGCTAGCATGGACCGGTTTTCCCGGTAATCCGTATTTGAA (site TAGCTAGCTTG)", "recombinant UMI read abundance (log10)": 0.0037},
      {"sequence": "TAGCTAGCATGGACCGGTTTTCCCGGTAATCCGTATTTGAA (site TAGCTAGCTTT)", "recombinant UMI read abundance (log10)": 0.858},
      {"sequence": "TAGCTAGCATGGACCGGTTTTCCCGGTAATCCGTATTTGAA (site TAGCTATCTTT)", "recombinant UMI read abundance (log10)": 0.588},
      {"sequence": "TAGCTAGCATGGACCGGTTTTCCCGGTAATCCGTATTTGAA (site TAGCTCGCTTT)", "recombinant UMI read abundance (log10)": 0.0026},
      {"sequence": "TAGCTAGCATGGACCGGTTTTCCCGGTAATCCGTATTTGAA (site TAGCTGGCTTT)", "recombinant UMI read abundance (log10)": 0.0168},
      {"sequence": "TAGCTAGCATGGACCGGTTTTCCCGGTAATCCGTATTTGAA (site TAGCTTGCTTT)", "recombinant UMI read abundance (log10)": 0.00961},
      {"sequence": "TAGCTAGCATGGACCGGTTTTCCCGGTAATCCGTATTTGAA (site TAGGTAGCTTT)", "recombinant UMI read abundance (log10)": 0.0179},
      {"sequence": "TAGCTAGCATGGACCGGTTTTCCCGGTAATCCGTATTTGAA (site TAGTTAGCTTT)", "recombinant UMI read abundance (log10)": 0.0249},
      {"sequence": "TAGCTAGCATGGACCGGTTTTCCCGGTAATCCGTATTTGAA (site TATCTAGCTTT)", "recombinant UMI read abundance (log10)": 0.0236},
      {"sequence": "TAGCTAGCATGGACCGGTTTTCCCGGTAATCCGTATTTGAA (site TCGCTAGCTTT)", "recombinant UMI read abundance (log10)": 0.00871},
      {"sequence": "TAGCTAGCATGGACCGGTTTTCCCGGTAATCCGTATTTGAA (site TGGCTAGCTTT)", "recombinant UMI read abundance (log10)": 0.0087},
      {"sequence": "TAGCTAGCATGGACCGGTTTTCCCGGTAATCCGTATTTGAA (site TTGCTAGCTTT)", "recombinant UMI read abundance (log10)": 0.00459},
      {"sequence": "TAGCTGACATGGACCGGTTTTCCCGGTAATCCGTATTTGCG (site TAGCTGACTCG)", "recombinant UMI read abundance (log10)": 1.5},
      {"sequence": "TAGGAATCATGGACCGGTTTTCCCGGTAATCCGTATTTGCA (site TAGGAATCTAG)", "recombinant UMI read abundance (log10)": 1.62},
      {"sequence": "TAGGAATCATGGACCGGTTTTCCCGGTAATCCGTATTTGCA (site TAGGAATCTCG)", "recombinant UMI read abundance (log10)": 1.64},
      {"sequence": "TAGGAATCATGGACCGGTTTTCCCGGTAATCCGTATTTGCA (site TAGGAATCTGG)", "recombinant UMI read abundance (log10)": 0.896},
      {"sequence": "TAGGAATCATGGACCGGTTTTCCCGGTAATCCGTATTTGCA (site TAGGAATCTTG)", "recombinant UMI read abundance (log10)": 2.82},
      {"sequence": "TAGGAATCATGGACCGGTTTTCCCGGTAATCCGTATTTGTG (site TAGGAATCTCA)", "recombinant UMI read abundance (log10)": 3.2},
      {"sequence": "TAGGAATCATGGACCGGTTTTCCCGGTAATCCGTATTTGTG (site TAGGAATCTCC)", "recombinant UMI read abundance (log10)": 2.13},
      {"sequence": "TAGGAATCATGGACCGGTTTTCCCGGTAATCCGTATTTGTG (site TAGGAATCTCG)", "recombinant UMI read abundance (log10)": 2.63},
      {"sequence": "TAGGAATCATGGACCGGTTTTCCCGGTAATCCGTATTTGTG (site TAGGAATCTCT)", "recombinant UMI read abundance (log10)": 2.59},
      {"sequence": "TAGGAGTCATGGACCGGTTTTCCCGGTAATCCGTATTTGCG (site TAGGAATCTCG)", "recombinant UMI read abundance (log10)": 3.12},
      {"sequence": "TAGGAGTCATGGACCGGTTTTCCCGGTAATCCGTATTTGCG (site TAGGACTCTCG)", "recombinant UMI read abundance (log10)": 1.24},
      {"sequence": "TAGGAGTCATGGACCGGTTTTCCCGGTAATCCGTATTTGCG (site TAGGAGTCTCG)", "recombinant UMI read abundance (log10)": 3.24},
      {"sequence": "TAGGAGTCATGGACCGGTTTTCCCGGTAATCCGTATTTGCG (site TAGGATTCTCG)", "recombinant UMI read abundance (log10)": 0.951},
      {"sequence": "TAGGCCGCATGGACCGGTTTTCCCGGTAATCCGTATTTGTG (site CCATTGACTTT)", "recombinant UMI read abundance (log10)": 0.00523},
      {"sequence": "TAGGCTTCATGGACCGGTTTTCCCGGTAATCCGTATTTGGT (site TAGACTTCTAC)", "recombinant UMI read abundance (log10)": 0.0923},
      {"sequence": "TAGGCTTCATGGACCGGTTTTCCCGGTAATCCGTATTTGGT (site TAGCCTTCTAC)", "recombinant UMI read abundance (log10)": 0.0146},
      {"sequence": "TAGGCTTCATGGACCGGTTTTCCCGGTAATCCGTATTTGGT (site TAGGCTTCTAC)", "recombinant UMI read abundance (log10)": 1.54},
      {"sequence": "TAGGCTTCATGGACCGGTTTTCCCGGTAATCCGTATTTGGT (site TAGTCTTCTAC)", "recombinant UMI read abundance (log10)": 0.0132},
      {"sequence": "TAGGGAACATGGACCGGTTTTCCCGGTAATCCGTATTTGGC (site TAGGGAACTGC)", "recombinant UMI read abundance (log10)": 1.53},
      {"sequence": "TAGGTTGCATGGACCGGTTTTCCCGGTAATCCGTATTTGTA (site TAGGTTGCTTA)", "recombinant UMI read abundance (log10)": 2.39},
      {"sequence": "TAGTAACCATGGACCGGTTTTCCCGGTAATCCGTATTTGAG (site TAGTAACCTCT)", "recombinant UMI read abundance (log10)": 0.00753}
    ]}
  ]
}
